# Test results from patent publication EP0606463B1, “NEUROMEDIN B RECEPTOR ANTAGONISTS” (The Administrators of The Tulane Educational Fund, priority 1992, dated 1994).
# Where a SMILES comes first, the peptide text is derived from it. Bridges are numbered along the chain shown (N, C = ends). [ ]: non-standard residue; d: D form. 2Nal = N[C@@H](Cc1ccc2ccccc2c1)C(=O)O; d2Nal = N[C@H](Cc1ccc2ccccc2c1)C(=O)O
# Key:
# rat NMB receptor = biological target: T1, rat NMB receptor (Rattus norvegicus, UniProt P24053); assay: Binding of 125I-[D-Tyr0]NMB to NMB-R transfected BALB 3T3 cells; conditions: for fold greater affinity for the NMB than the GRP receptors: NMB-R transfected cells versus GRP receptors on rat pancreatic acini
# T1 construct: a full length NMB-preferring bombesin receptor clone generated from rat esophagus; expressed in transfected cells; host or cells: BALB 3T3 cells
# T1 sequence (P24053 1-390): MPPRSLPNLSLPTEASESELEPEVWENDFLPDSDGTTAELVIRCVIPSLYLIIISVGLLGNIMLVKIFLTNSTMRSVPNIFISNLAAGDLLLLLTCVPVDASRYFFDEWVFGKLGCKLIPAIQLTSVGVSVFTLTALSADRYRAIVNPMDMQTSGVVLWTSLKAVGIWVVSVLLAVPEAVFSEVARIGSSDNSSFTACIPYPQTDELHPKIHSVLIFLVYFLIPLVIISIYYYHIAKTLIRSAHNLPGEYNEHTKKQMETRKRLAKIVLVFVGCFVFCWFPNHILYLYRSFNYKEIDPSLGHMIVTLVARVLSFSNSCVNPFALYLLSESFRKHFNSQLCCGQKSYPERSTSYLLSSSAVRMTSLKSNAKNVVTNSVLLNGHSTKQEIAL
# NMB Receptor = biological target: T2, NMB Receptor (Rattus norvegicus, UniProt P24053); assay: [3H]inositol phosphates (IP) in NMB-R transfected cells; assay type: cell-based
# T2 construct: a full length NMB-preferring bombesin receptor clone generated from rat esophagus; expressed in transfected cells; host or cells: BALB 3T3 cells
# T2 sequence (P24053 1-390): T1 sequence (P24053 1-390)
# Method in brief: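 BALB 3T3 cells stably expressing rat NMB receptor, labelled 48 h with myo-[2-3H]inositol, then 60 min at 37°C in LiCl-containing buffer with agonists, or with 3 nM NMB plus antagonists. Total [3H]IP isolated by anion-exchange chromatography.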
# CCKB = biological target: T3, CCKB (Rattus norvegicus, UniProt P30553); assay: CCKB membrane receptor assay; assay type: binding; conditions: at 1 µM
# T3 construct: rat cerebral cortex (CCKB, PYY, neurotensin); from tissue; host or cells: rat cerebral cortex membranes
# endothelinA = biological target: T4, endothelinA (Rattus norvegicus, UniProt P26684); assay: EtA membrane receptor assay (A10 smooth muscle cells); assay type: binding; conditions: at 1 µM
# T4 construct: A10 smooth muscle cells (EtA membrane receptor assay); endogenous in cells; host or cells: A10 smooth muscle cells (membranes)
# PYY receptor = assay: PYY membrane receptor assay; assay type: binding, rat; conditions: at 1 µM
# α1- adrenergic = assay: alpha1-adrenergic membrane receptor assay; assay type: binding, rat; conditions: at 1 µM
# α2- adrenergic = assay: alpha2-adrenergic membrane receptor assay; assay type: binding, rat; conditions: at 1 µM
# β1-adrenergic = biological target: T5, β1-adrenergic (Homo sapiens, UniProt P08588); assay: beta1-adrenergic membrane receptor assay; assay type: binding; conditions: at 1 µM
# T5 construct: receptors on plasma membranes on various tissues determined as described in METHODS; from tissue
# muscarinic cholinergic = assay: Muscarinic cholinergic membrane receptor assay; assay type: binding, rat; conditions: at 1 µM
# [1] = biological target: T6, benzodiazepine-peripheral receptor (Rattus norvegicus, UniProt P16257); assay: Peripheral benzodiazepine membrane receptor assay; assay type: binding; conditions: at 1 µM
# T6 construct: rat cerebral cortex (CCKB, PYY, neurotensin, ∝1-adrenergic, ∝2-adrenergic, muscarinic cholinergic, neural benzodiazepine, peripheral benzodiazepine); from tissue; host or cells: rat cerebral cortex membranes
# dopamine2 = biological target: T7, dopamine2 (Rattus norvegicus, UniProt P61169); assay: dopamine2 membrane receptor assay; assay type: binding; conditions: at 1 µM
# T7 construct: rat corpus striatum (dopamine1 and dopamine2 membrane receptor assays); from tissue; host or cells: rat corpus striatum membranes
# adenosine1 = biological target: T8, adenosine1 (Rattus norvegicus, UniProt P25099); assay: Adenosine membrane receptor assay; assay type: binding; conditions: at 1 µM
# T8 construct: rat cerebral cortex (CCKB, PYY, neurotensin, ∝1-adrenergic, ∝2-adrenergic, muscarinic cholinergic, neural benzodiazepine, peripheral benzodiazepine, adenosine); from tissue; host or cells: rat cerebral cortex membranes
# sigma opioid receptor = biological target: T9, sigma opioid receptor (Cavia porcellus, UniProt Q60492); assay: sigma opioid membrane receptor assay; assay type: binding, guinea pig; conditions: at 1 µM
# T9 construct: guinea pig cerebral (N1, histamine H1, and sigma opioid membrane receptor assays); from tissue; host or cells: guinea pig cerebral membranes
# [2] = biological target: T10, N-methyl D-aspartate receptors (Rattus norvegicus, UniProt P35439); assay: N-methyl-D-aspartate membrane receptor assay; assay type: binding; conditions: at 1 µM
# T10 construct: from tissue; host or cells: rat cerebral cortex membranes
# T5 sequence (P08588 whole entry): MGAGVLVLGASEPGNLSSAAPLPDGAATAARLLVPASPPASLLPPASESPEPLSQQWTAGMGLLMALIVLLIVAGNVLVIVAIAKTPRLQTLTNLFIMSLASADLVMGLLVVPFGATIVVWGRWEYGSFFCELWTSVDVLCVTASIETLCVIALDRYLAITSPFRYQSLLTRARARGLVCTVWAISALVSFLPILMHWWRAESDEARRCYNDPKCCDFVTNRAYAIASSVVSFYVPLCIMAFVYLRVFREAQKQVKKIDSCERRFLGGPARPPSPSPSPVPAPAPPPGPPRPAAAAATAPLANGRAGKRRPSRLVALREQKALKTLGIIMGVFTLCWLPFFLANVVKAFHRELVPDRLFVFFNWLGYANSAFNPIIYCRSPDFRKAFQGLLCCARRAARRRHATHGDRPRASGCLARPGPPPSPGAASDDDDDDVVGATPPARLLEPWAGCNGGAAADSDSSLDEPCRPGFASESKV
# T6 sequence (P16257 whole entry): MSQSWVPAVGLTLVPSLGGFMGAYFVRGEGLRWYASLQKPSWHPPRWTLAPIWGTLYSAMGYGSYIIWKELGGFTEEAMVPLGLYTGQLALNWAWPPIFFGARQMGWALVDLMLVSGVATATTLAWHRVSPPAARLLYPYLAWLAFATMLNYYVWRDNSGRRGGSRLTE
# T3 sequence (P30553 whole entry): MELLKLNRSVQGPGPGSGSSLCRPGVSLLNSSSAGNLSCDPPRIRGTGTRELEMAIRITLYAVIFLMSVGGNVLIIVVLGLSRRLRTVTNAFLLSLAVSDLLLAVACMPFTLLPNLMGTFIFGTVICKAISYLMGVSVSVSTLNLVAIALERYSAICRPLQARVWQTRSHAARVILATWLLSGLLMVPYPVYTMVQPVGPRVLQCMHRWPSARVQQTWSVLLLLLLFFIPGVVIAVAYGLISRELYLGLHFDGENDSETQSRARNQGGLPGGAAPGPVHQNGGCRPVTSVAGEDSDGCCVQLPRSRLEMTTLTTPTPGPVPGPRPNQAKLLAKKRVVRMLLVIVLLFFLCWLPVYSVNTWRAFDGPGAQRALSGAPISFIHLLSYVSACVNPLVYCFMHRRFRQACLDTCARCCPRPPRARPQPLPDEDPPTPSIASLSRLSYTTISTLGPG
# T8 sequence (P25099 whole entry): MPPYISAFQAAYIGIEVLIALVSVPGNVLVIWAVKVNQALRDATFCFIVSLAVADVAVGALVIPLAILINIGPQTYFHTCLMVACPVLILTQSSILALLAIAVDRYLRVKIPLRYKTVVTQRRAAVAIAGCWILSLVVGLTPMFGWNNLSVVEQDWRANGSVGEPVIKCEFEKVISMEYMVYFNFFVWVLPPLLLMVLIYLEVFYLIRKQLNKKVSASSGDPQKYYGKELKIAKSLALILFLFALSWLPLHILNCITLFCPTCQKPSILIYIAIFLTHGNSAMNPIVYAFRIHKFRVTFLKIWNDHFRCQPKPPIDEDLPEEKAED
# T9 sequence (Q60492 whole entry): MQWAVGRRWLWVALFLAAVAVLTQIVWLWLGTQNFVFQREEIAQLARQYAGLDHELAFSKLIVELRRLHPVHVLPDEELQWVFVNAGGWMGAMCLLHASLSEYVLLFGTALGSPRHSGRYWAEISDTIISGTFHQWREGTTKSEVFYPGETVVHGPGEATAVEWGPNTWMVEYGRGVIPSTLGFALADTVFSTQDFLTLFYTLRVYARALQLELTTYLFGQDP
# T4 sequence (P26684 21-426): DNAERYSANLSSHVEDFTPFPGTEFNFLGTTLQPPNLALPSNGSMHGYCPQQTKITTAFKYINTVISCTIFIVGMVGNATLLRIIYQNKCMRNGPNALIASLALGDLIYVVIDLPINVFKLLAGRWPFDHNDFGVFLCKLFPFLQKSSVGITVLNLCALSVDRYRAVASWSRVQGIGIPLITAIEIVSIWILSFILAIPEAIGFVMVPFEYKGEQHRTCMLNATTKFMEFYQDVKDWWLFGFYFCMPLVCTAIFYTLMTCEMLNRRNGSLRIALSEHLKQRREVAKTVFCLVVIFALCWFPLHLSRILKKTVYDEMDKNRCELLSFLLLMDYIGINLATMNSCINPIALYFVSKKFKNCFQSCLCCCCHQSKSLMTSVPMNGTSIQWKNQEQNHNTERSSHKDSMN
# T7 sequence (P61169 whole entry): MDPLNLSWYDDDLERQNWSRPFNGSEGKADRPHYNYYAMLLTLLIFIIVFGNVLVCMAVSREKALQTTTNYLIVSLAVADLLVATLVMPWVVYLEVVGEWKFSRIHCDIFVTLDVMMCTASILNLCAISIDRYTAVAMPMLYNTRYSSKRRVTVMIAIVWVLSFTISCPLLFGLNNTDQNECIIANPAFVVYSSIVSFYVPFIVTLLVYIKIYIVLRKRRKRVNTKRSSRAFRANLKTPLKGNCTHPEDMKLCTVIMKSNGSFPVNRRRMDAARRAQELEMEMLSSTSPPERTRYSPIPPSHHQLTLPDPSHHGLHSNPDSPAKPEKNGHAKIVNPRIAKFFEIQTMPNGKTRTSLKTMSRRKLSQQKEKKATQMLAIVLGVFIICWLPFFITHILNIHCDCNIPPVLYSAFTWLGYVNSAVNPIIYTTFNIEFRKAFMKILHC
smiles,measurement,setting,value
"CC(C)[C@@H]1NC(=O)[C@H](CCCCN)NC(=O)[C@@H](Cc2c[nH]c3ccccc23)NC(=O)[C@H](Cc2ccc(O)cc2)NC(=O)[C@@H](NC(=O)[C@H](N)Cc2ccc3ccccc3c2)CSSC[C@@H](C(=O)N[C@@H](Cc2ccc3ccccc3c2)C(N)=O)NC1=O [Analog #1, D-Nal-Cys-Tyr-D-Trp-Lys-Val-Cys-Nal-NH2] (H-[d2Nal]CY[dW]KVC[2Nal]-NH2; disulfide 2-7; N-terminus assumed)",complete inhibition of binding of ^125I-[Tyr^0]NMB at,rat NMB receptor; NMB-R transfected cells,3 µM
same,fold greater affinity for the NMB than the GRP receptors,rat NMB receptor,84 fold
same,fold greater affinity for the NMB than the GRP receptors,rat NMB receptor; listed as cyclo SS-octa,100 fold
same,detectible inhibition of binding of ^125I-[Tyr^0]NMB at,"rat NMB receptor; NMB-R transfected cells, lowest concentration with detectable inhibition",0.1 µM
same,regression slope of Schild plot,"NMB Receptor; 1, 3 or 10 µM cyclo SS-octa on NMB dose-response curve",1.1(+0.2)
same,complete inhibition of NMB-stimulated increases in [^3H]IP at,NMB Receptor; NMB-R transfected cells,10 µM
same,detectible inhibition of NMB-stimulated increases in [^3H]IP at,NMB Receptor; NMB-R transfected cells,0.3 µM
same,effect on NMB-stimulated increase in [^3H]IP,"NMB Receptor; NMB-R transfected cells, 3 nM NMB, peptide 10 µM",completely inhibited
same,NMB-R Transfected Cells [^3H]IP Alone (10 µ M),"NMB Receptor; analog 10 µM alone, no-additive control 13 ± 3",12 ± 2 dpm x 10^3
same,NMB-R Transfected Cells [^3H]IP Plus NMB (3 nM),"NMB Receptor; analog 10 µM plus NMB 3 nM, NMB without analog 186 ± 58",8 ± 4 dpm x 10^3
same,Kd,"NMB Receptor; rightward shift of NMB dose-response curve, NMB-R transfected cells, read-out: affinity for the NMB receptor from Schild plot",231 ± 43 nM
same,inhibition of binding to CCKB,CCKB,did not inhibit binding
same,inhibition of binding to endothelinA,endothelinA,did not inhibit binding
same,inhibition of binding to PYY,PYY receptor,did not inhibit binding
same,inhibition of binding to α1- adrenergic,α1- adrenergic,did not inhibit binding
same,inhibition of binding to α2- adrenergic,α2- adrenergic,did not inhibit binding
same,inhibition of binding to β1-adrenergic,β1-adrenergic,did not inhibit binding
same,inhibition of binding to muscarinic cholinergic,muscarinic cholinergic,did not inhibit binding
same,inhibition of binding to benzodiazepine peripheral,[1],did not inhibit binding
same,inhibition of binding to dopamine2,dopamine2,did not inhibit binding
same,inhibition of binding to adenosine1,adenosine1,did not inhibit binding
same,inhibition of binding to sigma opioid,sigma opioid receptor,did not inhibit binding
same,inhibition of binding to N-methyl D-aspartate receptors,[2],did not inhibit binding
